According to patent publication US4180577A, “Furo[2, 3d]pyrimidine derivatives and anti-ulcer containing the same” (Eisai Co., Ltd., priority 1974, dated 1979):
Values joined by “and” are separate entries in the source; they are usually repeats but may differ in a detail not shown here. Equal values may be shown once. Where a name gives a salt, the structure may show the parent alone.

Experiments:
[1] = test system: Secretion of Gastric Juice; assay: Effect for Secretion of Gastric Juice (pylorus-ligated rats, Shay method); type: in vivo, male rats of SD strain; conditions: rat, 100 mg/Kg, into the duodenum; for Amount of gastric juice Vol. / Free Acid Output / Total Acid Output: 4 hours; for Amount of gastric juice Vol.: control 1.78 ± 0.26; for Free Acid Output: control 133.2 ± 32.7; for Total Acid Output: control 154.0 ± 36.0; for suppression of the amount of the gastric juice / suppression of the free acid output / suppression of the total acid output: vs control group
Protocol: (§1) The compounds to be tested were suspended in 5% serous gum arabic solution, so as to adjust their concentration to 0.5 ml/100 g B.W. for oral administration, or 0.2 ml/100 g B.W. for duodenum administration. Indomethacin, [1-(p-chlorobenzoyl)-5-methoxy-2-methylindole-3-acetic acid] for control was suspended in 5% serous gum arabic solution, so as to adjust its concentration to 0.5 ml/100 g B.W.
The solutions of the compounds to be tested were adjusted to pH 5.0, and administered into the duodenum. The bellys were closed. After 4 hours, the animals were slaughtered by anesthesia, and the gastric juice was collected.
The volume of the gastric juice was measured and titrated by N/50 NaOH solution with Topfer indicator and phenolphthalein indicator, to determine the free acid output the total acid output, respectively.
The compounds to be tested were administered into the duodenum immediately after ligaturing the pylorus.
The medicine solution was adjusted to pH 5.0 with N--NaOH solution.

[2] = test system: Ligature Ulcer of the Pylorus; assay: Effect on Ligature Ulcer of the Pylorus; type: in vivo, male rats of SD strain; conditions: rat, 300 mg/Kg, into the duodenum, 17 hours
Protocol: as §1
According to the method by H. Shay et al. [Gastroenterology 5, 43 (1945)], male rats (weighing about 320 g) of SD strain were fasted for 24 hours, and then incised the belly under the ether rausch anesthesia, and finally ligatured the pyloruses. The solution of compounds to be tested were adjusted to pH 5.0, and administered into the duodenum. The bellys were closed. After subsequent 17 hours, the animals were slaughtered by the anesthesia, and their stomaches were extirpated. More particularly, the stomaches were incised along the greater curvature. The ulcer generated at forestomach was ranged as shown in the following. The total of the ranking was named as the ulcer index.
Greater than 1 mm, but not greater
Greater than 3 mm, but not greater
Greater than 5 mm, but not greater

[3] = test system: Immersive Stress-induced Ulcer; assay: Inhibitory Effects on the Immersive Stress-induced Ulcer; type: in vivo, female rats of SD strain; conditions: rat, oral; for Percentage of inhibition (ulcer index): vs control; for Ulcer index: control 80.4 ± 3.5
Protocol: as §1
According to the method by K. Takagi et al. [Jap. J. Pharmacol. 18, 9 )1968)], female rats (weighing about 160 g) of SD strain were put in a cage made of wire gauze for restraint, dipped in a water bath at the temperature of 23° C. so as to cover the lower end of their breast bones, and allowed to stand for 20 hours. The animals were then slaughtered by the anesthesia, and their stomaches were extirpated. The stomaches were inflated with 10 ml of physiological saline water, and dipped in 0.5% neutral formalin solution for about 5 minutes according to the method by D. A. Brodie et al [Gastroenterology 38, 354-360 (1960)]. The stomaches were then incised along the greater curvature. The length of each ulcer (erosion) generated at adeno-stomach was measured. The total of said lengthes were assigned as the ulcer index.
The compounds to be tested were orally administered prior to the immersion.

[4] = test system: Cold-restraint Stress Induced Ulcer; assay: Inhibitory Effects on Cold-restraint Stress Induced Ulcer; type: in vivo, female rats of SD strain; conditions: rat, oral; for Percentage of inhibition (ulcer index) / Ulcer index: 30 minutes prior to stress; for Percentage of inhibition (ulcer index): vs control, hydrobromide; for Ulcer index: control 14.8 ± 1.7
Protocol: as §1
This experiment was effected by referring to the method by S. Dai et al. [Eur. J. Pharmaco. 26, 15-21 (1974)] and the method by M. M. Goldenberg et al. [Am. J. Dic. Dis 19, 4, 353-360 (1974)].
Female rats of SD strain (weighing about 180 g) were restrained in a cage made of wire gauze, and the cage was allowed to stand in a room at the low temperature at 4° C. for two hours. After subsequent two hours, the animals were slaughtered. The stomaches were extirpated. Thereafter, the subsequent procedure was carried out in accordance with the pharmacological experiment 3.
The compounds to be tested were orally administered 30 minutes prior to exposure of the stress.

[5] = test system: Indomethacin-induced Ulcer; assay: Effects on Indomethacin-induced Ulcer; type: in vivo, Wister strain male rats; conditions: rat, oral, 30 minutes prior to Indomethacin 40 mg/Kg; for Percentage of inhibition (ulcer index): vs control; for Ulcer index: control 9.30 ± 3.09; for Percentage of Incidence of Ulcer: control 75
Protocol: as §1
Wister strain male rats (weighing about 230 g) were subjected to the fast for 24 hours. 40 mg/Kg of the Indomethacin were orally administered, respectively. After 4 hours from the administration, the animals were slaughtered and their stomaches were extirpated. The subsequent procedures were carried out in accordance with the pharmacological experiment 3.
The compounds to be tested were orally administered 30 minutes prior to the administration of Indomethacin.

SMILES: CSc1nc(N)c2c(C)coc2n1 [B, 2-Methylmercapto-4-amino-5-methyl-furo[2, 3d]pyrimidine hydrobromide]
- Amount of gastric juice Vol. [1]: 0.51 ± 0.09 (ml)/100g B.W.
- Free Acid Output [1]: 16.5 ± 5.5 μEq/100g B.W.
- Total Acid Output [1]: 37.8 ± 5.6 μEq/100g B.W.
- suppression of the amount of the gastric juice [1]: over 54%
- suppression of the free acid output [1]: over 69%
- suppression of the total acid output [1]: over 57%

SMILES: C=CCSc1nc(N)c2c(C)coc2n1 [C, 2-Allylmercapto-4-amino-5-methyl-furo[2, 3d]pyrimidine]
- Amount of gastric juice Vol. [1]: 0.49 ± 0.11 (ml)/100g B.W.
- Free Acid Output [1]: 18.2 ± 7.1 μEq/100g B.W.
- Total Acid Output [1]: 33.1 ± 7.6 μEq/100g B.W.
- suppression of the amount of the gastric juice [1]: over 54%
- suppression of the free acid output [1]: over 69%
- suppression of the total acid output [1]: over 57%

SMILES: CCSc1nc(N)c2c(C)coc2n1 [Compound A, 2-Ethylmercapto-4-amino-5-methyl-furo[2, 3d]pyrimidine hydrobromide]
- Amount of gastric juice Vol. [1]: 0.81 ± 0.15 (ml)/100g B.W.
- Free Acid Output [1]: 41.0 ± 16.6 μEq/100g B.W.
- Total Acid Output [1]: 65.8 ± 20.4 μEq/100g B.W.
- suppression of the amount of the gastric juice [1]: over 54%
- suppression of the free acid output [1]: over 69%
- suppression of the total acid output [1]: over 57%
- Percentage of inhibition (ulcer index) ([2]; vs control): 100%
- Ulcer index ([2]; control 54 ± 14): 0 ± 0 mm
- Percentage of inhibition (ulcer index) ([3]; 150 mg/Kg): 21.0%
- Ulcer index ([3]; 150 mg/Kg): 63.5 ± 6.5 mm
- Percentage of inhibition (ulcer index) ([3]; 300 mg/Kg): 38.7%
- Ulcer index ([3]; 300 mg/Kg): 49.3 ± 3.4 mm
- dose dependence of ulcer inhibition ([3]; 150 and 300 mg/Kg): dose dependent
- Percentage of inhibition (ulcer index) ([4]; 50 mg/Kg, 50 mg/kg): 78.4% and 78%
- Ulcer index ([4]; 50 mg/Kg): 3.2 ± 1.0 mm
- Percentage of inhibition (ulcer index) ([4]; 100 mg/Kg, 100 mg/kg): 85.8% and 86%
- Ulcer index ([4]; 100 mg/Kg): 2.1 ± 0.6 mm
- dose dependence of ulcer inhibition ([4]; 50 and 100 mg/Kg): dose dependent
- Percentage of inhibition (ulcer index) ([5]; 25 mg/Kg): 82%
- Ulcer index ([5]; 25 mg/Kg): 1.67 ± 1.00 mm
- Percentage of Incidence of Ulcer ([5]; 25 mg/Kg): 38%
- Percentage of inhibition (ulcer index) ([5]; 50 mg/Kg): 100%
- Ulcer index ([5]; 50 mg/Kg): 0 ± 0 mm
- Percentage of Incidence of Ulcer ([5]; 50 mg/Kg): 0%
- Percentage of inhibition (ulcer index) ([5]; 100 mg/Kg): 98%
- Ulcer index ([5]; 100 mg/Kg): 0.20 ± 0.19 mm
- Percentage of Incidence of Ulcer ([5]; 100 mg/Kg): 13%
